Laboratory results published in the NIST ThermoML archive (doi:10.1021/je034162x).
± gives the expanded uncertainty stated by the source.

Conditions: 101.33 kPa, Liquid, Hot wire method

Cc1ccccc1C [1,2-dimethylbenzene]
Conditions | thermal conductivity [W/m/K] | thermal diffusivity [m2/s]
257.75 K | 0.1368 ± 0.0011 | –
257.96 K | 0.1369 ± 0.0011 | –
258.1 K | 0.1368 ± 0.0011 | –
258.47 K | – | 9.16e-08 ± 1.8e-09
259 K | – | 9.21e-08 ± 1.8e-09
259.35 K | – | 9.19e-08 ± 1.8e-09
277.07 K | 0.1334 ± 0.0011 | –
277.27 K | 0.1333 ± 0.0011 | –
277.42 K | 0.1333 ± 0.0011 | –
277.79 K | – | 8.78e-08 ± 1.7e-09
278.28 K | – | 8.75e-08 ± 1.7e-09
278.66 K | – | 8.79e-08 ± 1.7e-09
295.56 K | 0.1296 ± 0.001 | –
295.78 K | 0.1296 ± 0.001 | –
295.91 K | 0.1294 ± 0.001 | –
296.29 K | – | 8.46e-08 ± 1.6e-09
296.81 K | – | 8.48e-08 ± 1.6e-09
297.15 K | – | 8.42e-08 ± 1.6e-09
312.07 K | 0.1259 ± 0.001 | –
312.29 K | 0.1258 ± 0.001 | –
312.44 K | 0.1257 ± 0.001 | –
312.82 K | – | 8.18e-08 ± 1.6e-09
313.34 K | – | 8.17e-08 ± 1.6e-09
313.7 K | – | 8.15e-08 ± 1.6e-09
328.72 K | 0.1222 ± 0.00098 | –
328.94 K | 0.122 ± 0.00098 | –
329.09 K | 0.1219 ± 0.00098 | –
329.45 K | – | 7.83e-08 ± 1.5e-09
329.98 K | – | 7.83e-08 ± 1.5e-09
330.35 K | – | 7.81e-08 ± 1.5e-09

C=CCCCCCC [oct-1-ene]
Conditions | thermal conductivity [W/m/K] | thermal diffusivity [m2/s]
259.69 K | 0.1354 ± 0.0009 | –
259.9 K | 0.1353 ± 0.0009 | –
260.06 K | 0.1353 ± 0.0009 | –
260.46 K | – | 9.04e-08 ± 1.7e-09
261.02 K | – | 9.07e-08 ± 1.7e-09
261.42 K | – | 9.09e-08 ± 1.7e-09
279.34 K | 0.1294 ± 0.00087 | –
279.57 K | 0.1294 ± 0.00087 | –
279.72 K | 0.129 ± 0.00089 | –
280.08 K | – | 8.39e-08 ± 1.6e-09
280.66 K | – | 8.48e-08 ± 1.6e-09
281.06 K | – | 8.49e-08 ± 1.6e-09
296.88 K | 0.124 ± 0.00083 | –
297.14 K | 0.124 ± 0.00083 | –
297.28 K | 0.124 ± 0.00083 | –
297.65 K | – | 7.98e-08 ± 1.5e-09
298.28 K | – | 8e-08 ± 1.5e-09
298.61 K | – | 8.02e-08 ± 1.5e-09
315.82 K | 0.1185 ± 0.0008 | –
316.07 K | 0.1186 ± 0.0008 | –
316.24 K | 0.1186 ± 0.0008 | –
316.57 K | – | 7.49e-08 ± 1.4e-09
317.19 K | – | 7.58e-08 ± 1.4e-09
317.61 K | – | 7.61e-08 ± 1.4e-09
326.44 K | 0.1155 ± 0.00078 | –
326.7 K | 0.1156 ± 0.00078 | –
326.87 K | 0.1156 ± 0.00078 | –
327.18 K | – | 7.24e-08 ± 1.4e-09
327.82 K | – | 7.35e-08 ± 1.4e-09
328.26 K | – | 7.38e-08 ± 1.4e-09
